Results from patent US9447408B2, “Method of efficiently establishing induced pluripotent stem cells” (Kyoto University, priority 2010, dated 2016).

System: Mouse embryonic fibroblasts (MEFs)
Test: iPS cell establishment from MEFs, 3 genes (Oct3/4, Sox2, Klf4) introduced, with p38 inhibitors
Assay type: cell-based
Settings: 10 μM inhibitor, 2×10^4 cells/10 cm dish, FIG. 2
Description: Three genes were introduced using a retrovirus by the same experimental procedures as the above. The cells were cultured at a cell density of 2×10^4 cells/10 cm dish, with the addition of 10 μM of SB202190, SB239063, or SB203580 (Calbiochem Company) to the medium per the schedule shown below, and the establishment efficiency was compared. • 1. Oct3/4, Sox2, Klf4, each derived from mouse, saline • 2. Oct3/4, Sox2, Klf4, each derived from mouse, DMSO • 3. Oct3/4, Sox2, Klf4, each derived from mouse, SB202190 10 μM (Day 1-4) • 4. Oct3/4, Sox2, Klf4, each derived from mouse, SB202190 10 μM (Day 1-8) • 5. Oct3/4, Sox2, Klf4, each derived from mouse, SB202190 10 μM (Day 9-16) • 6. Oct3/4, Sox2, Klf4, each derived from mouse, SB202190 10 μM (Day 1-16) • 7. Oct3/4, Sox2, Klf4, each derived from mouse, SB239063 10 μM (Day 1-4) • 8. Oct3/4, Sox2, Klf4, each derived from mouse, SB239063 10 μM (Day 1-8) • 9. Oct3/4, Sox2, Klf4, each derived from mouse, SB239063 10 μM (Day 9-16) • 10. Oct3/4, Sox2, Klf4, each derived from mouse, SB239063 10 μM (Day 1-16) • 11. Oct3/4, Sox2, Klf4, each derived from mouse, SB203580 10 μM (Day 1-4) • 12. Oct3/4, Sox2, Klf4, each derived from mouse, SB203580 10 μM (Day 1-8) • 13. Oct3/4, Sox2, Klf4, each derived from mouse, SB203580 10 μM (Day 9-16) • 14. Oct3/4, Sox2, Klf4, each derived from mouse, SB203580 10 μM (Day 1-16),

COc1nccc(-c2c(-c3ccc(F)cc3)ncn2[C@H]2CC[C@H](O)CC2)n1 [SB239063, trans-1-(4-Hydroxycyclohexyl)-4-(4-fluorophenyl)-5-(2-methoxypyrimidin-4-yl)imidazole]
number of Nanog-GFP-positive colonies compared with physiological saline or DMSO: increased
total number of colonies compared with physiological saline or DMSO: increased
